Laboratory results taken from ChEMBL document CHEMBL1201862, “PubChem BioAssay data set” (2004).
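96-well plates; 48 h exposure; 5 concentrations. Endpoints by linear interpolation between flanking doses. Not reached: highest tested concentration assigned. Abbreviation: GI50, concentration required for 50% inhibition of growth.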 Active and inactive are the calls of the source. No stated cut-off is given here; in the data, active = GI50 up to about 1.1 µM and inactive = higher.

Legend:
Experiment in all cases: NCI anticancer screen, dose series, 48 h
NCI-H522 = tested on: NCI-H522
U-251 = tested on: U-251
HT-29 = tested on: HT-29
NCI-H460 = tested on: NCI-H460
HOP-92 = tested on: HOP-92
SW-620 = tested on: SW-620
SR = tested on: SR
RXF 393 = tested on: RXF 393
OVCAR-3 = tested on: OVCAR-3
IGROV-1 = tested on: IGROV-1
SK-OV-3 = tested on: SK-OV-3
SNB-75 = tested on: SNB-75
ACHN = tested on: ACHN
NCI-H226 = tested on: NCI-H226
CCRF-CEM = tested on: CCRF-CEM
HCC 2998 = tested on: HCC 2998
OVCAR-5 = tested on: OVCAR-5

Measured: GI50

COc1cc2c(cc1C1=NC(C)(C)CO1)OCO2
inactive: NCI-H522 > 100 µM | U-251 > 100 µM | HT-29 > 100 µM | NCI-H460 > 100 µM | HOP-92 > 100 µM | SW-620 > 100 µM | SR > 100 µM | RXF 393 > 100 µM | OVCAR-3 > 100 µM | IGROV-1 > 100 µM | SK-OV-3 > 100 µM | SNB-75 > 100 µM | ACHN > 100 µM | NCI-H226 > 100 µM | CCRF-CEM > 100 µM

CC(c1ccc(Br)cc1)C(C(=O)O)C(=O)O (configuration not stated)
inactive: HCC 2998 > 100 µM | NCI-H522 > 100 µM | U-251 > 100 µM | HT-29 > 100 µM | OVCAR-5 > 100 µM | NCI-H460 > 100 µM | SW-620 > 100 µM | SR > 100 µM | RXF 393 > 100 µM | OVCAR-3 > 100 µM | IGROV-1 > 100 µM | SK-OV-3 > 100 µM | SNB-75 > 100 µM | ACHN > 100 µM | NCI-H226 > 100 µM | CCRF-CEM > 100 µM

CN(C)c1ccc(/C=c2\sc3nnc(-c4cccnc4)n3c2=O)cc1
inactive: HCC 2998 > 100 µM | NCI-H522 > 100 µM | U-251 > 100 µM | OVCAR-5 > 100 µM | NCI-H460 > 100 µM | HOP-92 > 100 µM | SW-620 > 100 µM | RXF 393 > 100 µM | OVCAR-3 > 100 µM | IGROV-1 > 100 µM | SK-OV-3 > 100 µM | SNB-75 > 100 µM | ACHN > 100 µM | NCI-H226 > 100 µM | CCRF-CEM > 100 µM

CN1S(=O)(=O)N(C)P12(N=P(CP(=NP13(N(C)S(=O)(=O)N1C)N(C)S(=O)(=O)N3C)(c1ccccc1)c1ccccc1)(c1ccccc1)c1ccccc1)N(C)S(=O)(=O)N2C
inactive: HCC 2998 > 100 µM | NCI-H522 > 100 µM | U-251 > 100 µM | HT-29 > 100 µM | OVCAR-5 > 100 µM | NCI-H460 > 100 µM | HOP-92 > 100 µM | SW-620 > 100 µM | RXF 393 > 100 µM | OVCAR-3 > 100 µM | IGROV-1 > 100 µM | SK-OV-3 > 100 µM | SNB-75 > 100 µM | ACHN > 100 µM | NCI-H226 > 100 µM | CCRF-CEM > 100 µM

Cc1ccc(S(=O)(=O)NC(=O)C2S(=O)(=O)OCCOS2(=O)=O)cc1
inactive: HCC 2998 > 100 µM | NCI-H522 > 100 µM | HT-29 > 100 µM | HOP-92 > 100 µM | SW-620 > 100 µM | SR > 100 µM | OVCAR-3 > 100 µM | SK-OV-3 > 100 µM | SNB-75 > 100 µM | NCI-H226 1.24 µM | CCRF-CEM > 100 µM

C=CC[P@@]1(=O)O[C@H](c2ccccc2)C(C)N1C(C)C (some centres not stated)
inactive: HCC 2998 > 100 µM | U-251 > 100 µM | HT-29 > 100 µM | OVCAR-5 > 100 µM | NCI-H460 > 100 µM | SW-620 > 100 µM | SR > 100 µM | RXF 393 > 100 µM | OVCAR-3 > 100 µM | IGROV-1 > 100 µM | SK-OV-3 > 100 µM | SNB-75 > 100 µM | ACHN > 100 µM | NCI-H226 > 100 µM | CCRF-CEM > 100 µM

O=S(=O)(O)c1ccc(/N=N/c2nc(C(F)(F)F)c(C(F)(F)F)[nH]2)cc1
inactive: U-251 41.9 µM | HT-29 77.1 µM | OVCAR-5 18.1 µM | NCI-H460 82 µM | HOP-92 16.6 µM | SW-620 41.5 µM | SR 21.2 µM | RXF 393 18.4 µM | OVCAR-3 33 µM | IGROV-1 > 100 µM | SK-OV-3 > 100 µM | SNB-75 75.9 µM | ACHN > 100 µM | NCI-H226 31.5 µM | CCRF-CEM 45.4 µM

COc1cc(/C=C/c2ccc(OC(C)=O)cc2)cc(OC)c1OC
inactive: NCI-H522 17.9 µM | U-251 28 µM | HT-29 34.9 µM | OVCAR-5 18 µM | NCI-H460 26.1 µM | HOP-92 30 µM | SW-620 43.5 µM | RXF 393 11.1 µM | OVCAR-3 22.6 µM | IGROV-1 32.4 µM | ACHN 15.5 µM | NCI-H226 35.8 µM | CCRF-CEM 11.6 µM

CC(C)=CC(=O)c1c(C(=O)O)nc2ccccc2[n+]1[O-]
inactive: HCC 2998 > 100 µM | U-251 > 100 µM | HT-29 > 100 µM | OVCAR-5 > 100 µM | NCI-H460 > 100 µM | HOP-92 > 100 µM | SW-620 > 100 µM | SR > 100 µM | RXF 393 > 100 µM | IGROV-1 > 100 µM | SK-OV-3 > 100 µM | SNB-75 > 100 µM | ACHN > 100 µM | NCI-H226 > 100 µM | CCRF-CEM > 100 µM

Cn1c(CBr)nc2c1C(=O)c1nc(CBr)[nH]c(=O)c1C2=O
inactive: NCI-H522 > 100 µM | U-251 > 100 µM | HT-29 > 100 µM | NCI-H460 > 100 µM | HOP-92 61.4 µM | SW-620 > 100 µM | RXF 393 > 100 µM | IGROV-1 > 100 µM | SK-OV-3 > 100 µM | ACHN > 100 µM | CCRF-CEM 40.5 µM

CN1/C(=C/C(=O)c2ccc(Cl)cc2)Nc2ccccc21
inactive: HCC 2998 56 µM | NCI-H522 19.1 µM | U-251 47.3 µM | HT-29 50.7 µM | OVCAR-5 18.9 µM | NCI-H460 32.5 µM | SW-620 55.5 µM | SR 32.2 µM | RXF 393 > 100 µM | OVCAR-3 47.1 µM | IGROV-1 38.6 µM | SNB-75 > 100 µM | ACHN 33 µM | NCI-H226 13.6 µM | CCRF-CEM 34.8 µM

N#C/C(=C1\SC(/N=N/c2ccc(Cl)cc2)C(=O)N1c1ccccc1)c1nc2ccccc2[nH]1 (configuration not stated)
inactive: NCI-H522 23.8 µM | U-251 20.3 µM | HT-29 63.8 µM | OVCAR-5 25.6 µM | NCI-H460 33.7 µM | HOP-92 18.8 µM | SW-620 98.6 µM | RXF 393 36.6 µM | OVCAR-3 17.1 µM | SK-OV-3 15.5 µM | SNB-75 25.9 µM | ACHN 25.5 µM | NCI-H226 23.4 µM | CCRF-CEM 16.9 µM

CC(C)(C)OP(=O)(OC(C)(C)C)C(O)c1ccc(/C=C(\C#N)C(N)=O)cc1 (configuration not stated)
inactive: HCC 2998 > 100 µM | NCI-H522 > 100 µM | U-251 > 100 µM | HT-29 > 100 µM | OVCAR-5 > 100 µM | NCI-H460 > 100 µM | HOP-92 > 100 µM | SW-620 > 100 µM | RXF 393 > 100 µM | OVCAR-3 > 100 µM | IGROV-1 > 100 µM | SK-OV-3 > 100 µM | SNB-75 > 100 µM | ACHN > 100 µM | NCI-H226 > 100 µM | CCRF-CEM > 100 µM
